Assay results published in PubChem BioAssay (NCI).
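All cell lines were grown in 96-well plates and treated with compound for 48 hours. At the GI50, growth is halved. The concentration for full growth arrest is given as TGI.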

Tests used:
Assay in all cases: growth of human tumour cells (NCI), 48 h
[1] = test system: 786-0 renal
[2] = test system: A498 renal
[3] = test system: A549 NSCLC
[4] = test system: ACHN renal
[5] = test system: CAKI-1 renal
[6] = test system: CCRF-CEM leukemia
[7] = test system: COLO 205 colon
[8] = test system: DU-145 prostate
[9] = test system: EKVX NSCLC
[10] = test system: HCC-2998 colon
[11] = test system: HCT-116 colon
[12] = test system: HCT-15 colon
[13] = test system: HL-60(TB) leukemia
[14] = test system: HOP-62 NSCLC
[15] = test system: HOP-92 NSCLC
[16] = test system: HS 578T breast
[17] = test system: HT29 colon
[18] = test system: IGROV1 ovarian
[19] = test system: K-562 leukemia
[20] = test system: KM12 colon
[21] = test system: LOX IMVI melanoma
[22] = test system: M14 melanoma
[23] = test system: MALME-3M melanoma
[24] = test system: MCF7 breast
[25] = test system: MDA-MB-231 breast
[26] = test system: MDA-MB-435
[27] = test system: MOLT-4 leukemia
[28] = test system: NCI-H226 lung
[29] = test system: NCI-H23 lung
[30] = test system: NCI-H460 lung
[31] = test system: NCI-H522 lung
[32] = test system: NCI/ADR-RES ovarian
[33] = test system: OVCAR-3 ovarian
[34] = test system: OVCAR-4 ovarian
[35] = test system: OVCAR-5 ovarian
[36] = test system: PC-3 prostate
[37] = test system: RPMI-8226 leukemia
[38] = test system: SF-268 CNS
[39] = test system: SF-295 CNS
[40] = test system: SF-539 CNS
[41] = test system: SK-MEL-2 melanoma
[42] = test system: SK-MEL-28 melanoma
[43] = test system: SK-MEL-5 melanoma
[44] = test system: SK-OV-3 ovarian
[45] = test system: SN12C renal
[46] = test system: SNB-19 CNS
[47] = test system: SNB-75 CNS
[48] = test system: SR leukemia
[49] = test system: SW-620 colon
[50] = test system: T-47D breast
[51] = test system: TK-10 renal
[52] = test system: U251 CNS
[53] = test system: UACC-62 melanoma
[54] = test system: UO-31 renal
[55] = test system: OVCAR-8 ovarian
[56] = test system: RXF 393 renal
[57] = test system: UACC-257 melanoma
[58] = test system: BT-549 breast

CSc1ccc(C2=NN(c3ccccc3)C(c3ccc(-c4cc(Cl)c(Cl)cc4Cl)o3)C2)cc1 (stereo not given)
GI50 [1]: > 100 µM | TGI [1]: > 100 µM | GI50 [2]: > 100 µM | TGI [2]: > 100 µM | GI50 [3]: > 100 µM | TGI [3]: > 100 µM | GI50 [4]: > 100 µM | TGI [4]: > 100 µM | GI50 [5]: > 100 µM | TGI [5]: > 100 µM | GI50 [6]: > 100 µM | TGI [6]: > 100 µM | GI50 [7]: > 100 µM | TGI [7]: > 100 µM | GI50 [8]: > 100 µM | TGI [8]: > 100 µM | GI50 [9]: > 100 µM | TGI [9]: > 100 µM | GI50 [10]: > 100 µM | TGI [10]: > 100 µM | GI50 [11]: > 100 µM | TGI [11]: > 100 µM | GI50 [12]: > 100 µM | TGI [12]: > 100 µM | GI50 [13]: > 100 µM | TGI [13]: > 100 µM | GI50 [14]: 12.3 µM | TGI [14]: > 100 µM | GI50 [15]: 21 µM | TGI [15]: 52.1 µM | GI50 [16]: 46.3 µM | TGI [16]: > 100 µM | GI50 [17]: > 100 µM | TGI [17]: > 100 µM | GI50 [18]: > 100 µM | TGI [18]: > 100 µM | GI50 [19]: > 100 µM | TGI [19]: > 100 µM | GI50 [20]: > 100 µM | TGI [20]: > 100 µM | GI50 [21]: > 100 µM | TGI [21]: > 100 µM | GI50 [22]: > 100 µM | TGI [22]: > 100 µM | GI50 [23]: > 100 µM | TGI [23]: > 100 µM | GI50 [24]: > 100 µM | TGI [24]: > 100 µM | GI50 [25]: > 100 µM | TGI [25]: > 100 µM | GI50 [26]: > 100 µM | TGI [26]: > 100 µM | GI50 [27]: > 100 µM | TGI [27]: > 100 µM | GI50 [28]: > 100 µM | TGI [28]: > 100 µM | GI50 [29]: > 100 µM | TGI [29]: > 100 µM | GI50 [30]: 89.3 µM | TGI [30]: > 100 µM | GI50 [31]: > 100 µM | TGI [31]: > 100 µM | GI50 [32]: > 100 µM | TGI [32]: > 100 µM | GI50 [33]: > 100 µM | TGI [33]: > 100 µM | GI50 [34]: > 100 µM | TGI [34]: > 100 µM | GI50 [35]: > 100 µM | TGI [35]: > 100 µM | GI50 [36]: 63.1 µM | TGI [36]: > 100 µM | GI50 [37]: > 100 µM | TGI [37]: > 100 µM | GI50 [38]: 87.1 µM | TGI [38]: > 100 µM | GI50 [39]: 54.7 µM | TGI [39]: > 100 µM | GI50 [40]: 63.2 µM | TGI [40]: > 100 µM | GI50 [41]: > 100 µM | TGI [41]: > 100 µM | GI50 [42]: > 100 µM | TGI [42]: > 100 µM | GI50 [43]: > 100 µM | TGI [43]: > 100 µM | GI50 [44]: 35.8 µM | TGI [44]: > 100 µM | GI50 [45]: > 100 µM | TGI [45]: > 100 µM | GI50 [46]: 64.3 µM | TGI [46]: > 100 µM | GI50 [47]: 27.5 µM | TGI [47]: 85.7 µM | GI50 [48]: > 100 µM | TGI [48]: > 100 µM | GI50 [49]: > 100 µM | TGI [49]: > 100 µM | GI50 [50]: > 100 µM | TGI [50]: > 100 µM | GI50 [51]: > 100 µM | TGI [51]: > 100 µM | GI50 [52]: 89.2 µM | TGI [52]: > 100 µM | GI50 [53]: 78.8 µM | TGI [53]: > 100 µM | GI50 [54]: > 100 µM | TGI [54]: > 100 µM

OCN(CO)c1ccc2c(c1)Cc1cc(F)ccc1-2
TGI [1]: > 100 µM | TGI [3]: 47.3 µM | TGI [4]: 36.4 µM | TGI [5]: 44.6 µM | TGI [7]: 24.9 µM | TGI [8]: 50.2 µM | TGI [9]: 41.5 µM | TGI [11]: > 100 µM | TGI [12]: 41.9 µM | TGI [13]: 78.4 µM | TGI [14]: > 100 µM | TGI [16]: 33.9 µM | TGI [17]: 27.9 µM | TGI [18]: 43 µM | TGI [19]: 39.9 µM | TGI [20]: 35.4 µM | TGI [21]: 31.7 µM | TGI [22]: 60.9 µM | TGI [23]: 52.4 µM | TGI [24]: 42.7 µM | TGI [25]: 32.9 µM | TGI [26]: 36.8 µM | TGI [27]: 75.8 µM | TGI [28]: 40.3 µM | TGI [29]: 93.7 µM | TGI [30]: 65.1 µM | TGI [31]: 37.4 µM | TGI [32]: 51.4 µM | TGI [33]: 27.4 µM | TGI [34]: 45.7 µM | TGI [35]: 46.8 µM | TGI [55]: 40.5 µM | TGI [36]: 36.2 µM | TGI [56]: > 100 µM | TGI [38]: 81.3 µM | TGI [39]: 30.1 µM | TGI [40]: 36.8 µM | TGI [41]: 45.9 µM | TGI [42]: 88.7 µM | TGI [43]: 23.3 µM | TGI [44]: 95.9 µM | TGI [45]: 38.6 µM | TGI [46]: 44 µM | TGI [47]: 56.3 µM | TGI [48]: 39.3 µM | TGI [49]: 25.4 µM | TGI [50]: 36.1 µM | TGI [51]: 39.2 µM | TGI [52]: 34.8 µM | TGI [57]: 37.2 µM | TGI [53]: 38.1 µM | TGI [54]: 59.9 µM

CCOC(=O)c1ccc(N=C2S/C(=C\C(=S)Nc3ccccc3)N(c3ccccc3)C2=Nc2ccc(C(=O)OCC)cc2)cc1
TGI [1]: > 100 µM | TGI [3]: > 100 µM | TGI [58]: > 100 µM | TGI [6]: > 100 µM | TGI [7]: > 100 µM | TGI [9]: > 100 µM | TGI [10]: > 100 µM | TGI [11]: > 100 µM | TGI [12]: > 100 µM | TGI [13]: > 100 µM | TGI [14]: > 100 µM | TGI [15]: > 100 µM | TGI [16]: > 100 µM | TGI [17]: > 100 µM | TGI [18]: > 100 µM | TGI [19]: > 100 µM | TGI [20]: > 100 µM | TGI [22]: > 100 µM | TGI [23]: 82.6 µM | TGI [24]: > 100 µM | TGI [25]: > 100 µM | TGI [27]: > 100 µM | TGI [28]: > 100 µM | TGI [29]: > 100 µM | TGI [55]: > 100 µM | TGI [36]: > 100 µM | TGI [37]: > 100 µM | TGI [56]: > 100 µM | TGI [41]: > 100 µM | TGI [42]: > 100 µM | TGI [43]: > 100 µM | TGI [45]: > 100 µM | TGI [46]: > 100 µM | TGI [47]: > 100 µM | TGI [48]: > 100 µM | TGI [49]: > 100 µM | TGI [51]: > 100 µM | TGI [57]: > 100 µM | TGI [53]: > 100 µM | TGI [54]: > 100 µM
